Experimental data: paper PMC9945734 (BMC Medicine, 2023)

System: PC-3-KQ and PC-3-KR cells
Experiment: RNA-sequencing and differential gene expression
Assay type: cell-based, human

## CC(=O)Oc1ccccc1C(=O)Nc1ncc([N+](=O)[O-])s1 [Nitazoxanide]
RNA-Seq, PC-3-KQ cells
  IL21R Change (KQ-Control vs KQ-NTZ): DOWN
  IL21R logFC (KQ-Control vs KQ-NTZ): -0.8899
  INHBA Change (KQ-Control vs KQ-NTZ): DOWN
  INHBA logFC (KQ-Control vs KQ-NTZ): -0.6293
  INHBB Change (KQ-Control vs KQ-NTZ): DOWN
  INHBB logFC (KQ-Control vs KQ-NTZ): -0.6733
  KIAA1755 Change (KQ-Control vs KQ-NTZ): DOWN
  KIAA1755 logFC (KQ-Control vs KQ-NTZ): -0.9388
  KLK9 Change (KQ-Control vs KQ-NTZ): DOWN
  KLK9 logFC (KQ-Control vs KQ-NTZ): -1.8809
  LGALS12 Change (KQ-Control vs KQ-NTZ): DOWN
  LGALS12 logFC (KQ-Control vs KQ-NTZ): -2.2497
  LILRB3 Change (KQ-Control vs KQ-NTZ): DOWN
  LILRB3 logFC (KQ-Control vs KQ-NTZ): -0.8729
  LOC105373989 Change (KQ-Control vs KQ-NTZ): DOWN
  LOC105373989 logFC (KQ-Control vs KQ-NTZ): -0.7405
  LOC105377805 Change (KQ-Control vs KQ-NTZ): DOWN
  LOC105377805 logFC (KQ-Control vs KQ-NTZ): -0.9959
  LOC107987158 Change (KQ-Control vs KQ-NTZ): DOWN
  LOC107987158 logFC (KQ-Control vs KQ-NTZ): -1.1348
  LONRF2 Change (KQ-Control vs KQ-NTZ): DOWN
  LONRF2 logFC (KQ-Control vs KQ-NTZ): -0.9823
  LTB Change (KQ-Control vs KQ-NTZ): DOWN
  LTB logFC (KQ-Control vs KQ-NTZ): -0.7686
  LY6K Change (KQ-Control vs KQ-NTZ): DOWN
  LY6K logFC (KQ-Control vs KQ-NTZ): -0.6327
  MAP7D3 Change (KQ-Control vs KQ-NTZ): DOWN
  MAP7D3 logFC (KQ-Control vs KQ-NTZ): -0.8315
  MCM4 Change (KQ-Control vs KQ-NTZ): DOWN
  MCM4 logFC (KQ-Control vs KQ-NTZ): -0.8431
  MEOX1 Change (KQ-Control vs KQ-NTZ): DOWN
  MEOX1 logFC (KQ-Control vs KQ-NTZ): -0.6507
  MMP9 Change (KQ-Control vs KQ-NTZ): DOWN
  MMP9 logFC (KQ-Control vs KQ-NTZ): -0.7252
  MNX1 Change (KQ-Control vs KQ-NTZ): DOWN
  MNX1 logFC (KQ-Control vs KQ-NTZ): -0.604
  MSMP Change (KQ-Control vs KQ-NTZ): DOWN
  MSMP logFC (KQ-Control vs KQ-NTZ): -1.1495
  MYBL2 Change (KQ-Control vs KQ-NTZ): DOWN
  MYBL2 logFC (KQ-Control vs KQ-NTZ): -0.7249
  MYH7B Change (KQ-Control vs KQ-NTZ): DOWN
  MYH7B logFC (KQ-Control vs KQ-NTZ): -0.9453
  NKD1 Change (KQ-Control vs KQ-NTZ): DOWN
  NKD1 logFC (KQ-Control vs KQ-NTZ): -0.7476
  NRK Change (KQ-Control vs KQ-NTZ): DOWN
  NRK logFC (KQ-Control vs KQ-NTZ): -1.1538
  NTF4 Change (KQ-Control vs KQ-NTZ): DOWN
  NTF4 logFC (KQ-Control vs KQ-NTZ): -0.9396
  PADI3 Change (KQ-Control vs KQ-NTZ): DOWN
  PADI3 logFC (KQ-Control vs KQ-NTZ): -0.9445
  PCDH18 Change (KQ-Control vs KQ-NTZ): DOWN
  PCDH18 logFC (KQ-Control vs KQ-NTZ): -1.1702
  PEG10 Change (KQ-Control vs KQ-NTZ): DOWN
  PEG10 logFC (KQ-Control vs KQ-NTZ): -0.7533
  PFKFB1 Change (KQ-Control vs KQ-NTZ): DOWN
  PFKFB1 logFC (KQ-Control vs KQ-NTZ): -0.9123
  PGAM4 Change (KQ-Control vs KQ-NTZ): DOWN
  PGAM4 logFC (KQ-Control vs KQ-NTZ): -0.6254
  PHACTR3 Change (KQ-Control vs KQ-NTZ): DOWN
  PHACTR3 logFC (KQ-Control vs KQ-NTZ): -1.8948
  PHOSPHO2 Change (KQ-Control vs KQ-NTZ): DOWN
  PHOSPHO2 logFC (KQ-Control vs KQ-NTZ): -0.6401
  PIANP Change (KQ-Control vs KQ-NTZ): DOWN
  PIANP logFC (KQ-Control vs KQ-NTZ): -1.6896
  PRKDC Change (KQ-Control vs KQ-NTZ): DOWN
  PRKDC logFC (KQ-Control vs KQ-NTZ): -0.6126
  PRR16 Change (KQ-Control vs KQ-NTZ): DOWN
  PRR16 logFC (KQ-Control vs KQ-NTZ): -0.5996
  PRR29 Change (KQ-Control vs KQ-NTZ): DOWN
  PRR29 logFC (KQ-Control vs KQ-NTZ): -0.8108
  PRRT4 Change (KQ-Control vs KQ-NTZ): DOWN
  PRRT4 logFC (KQ-Control vs KQ-NTZ): -0.6032
  RBL1 Change (KQ-Control vs KQ-NTZ): DOWN
  RBL1 logFC (KQ-Control vs KQ-NTZ): -0.6965
  RPP25 Change (KQ-Control vs KQ-NTZ): DOWN
  RPP25 logFC (KQ-Control vs KQ-NTZ): -0.6095
  SCG2 Change (KQ-Control vs KQ-NTZ): DOWN
  SCG2 logFC (KQ-Control vs KQ-NTZ): -0.6461
  SERPINA3 Change (KQ-Control vs KQ-NTZ): DOWN
  SERPINA3 logFC (KQ-Control vs KQ-NTZ): -0.7667
  SERPINA5 Change (KQ-Control vs KQ-NTZ): DOWN
  SERPINA5 logFC (KQ-Control vs KQ-NTZ): -0.8689
  SERPINB3 Change (KQ-Control vs KQ-NTZ): DOWN
  SERPINB3 logFC (KQ-Control vs KQ-NTZ): -1.6793
  SERPINB4 Change (KQ-Control vs KQ-NTZ): DOWN
  SERPIND1 Change (KQ-Control vs KQ-NTZ): DOWN
  SERPIND1 logFC (KQ-Control vs KQ-NTZ): -1.1652
  SGK1 Change (KQ-Control vs KQ-NTZ): DOWN
  SGK1 logFC (KQ-Control vs KQ-NTZ): -0.7813
  SHISA3 Change (KQ-Control vs KQ-NTZ): DOWN
  SHISA3 logFC (KQ-Control vs KQ-NTZ): -0.8421
  SLC22A4 Change (KQ-Control vs KQ-NTZ): DOWN
  SLC22A4 logFC (KQ-Control vs KQ-NTZ): -0.8073
  SLC26A9 Change (KQ-Control vs KQ-NTZ): DOWN
  SLC26A9 logFC (KQ-Control vs KQ-NTZ): -0.6605
  SLC45A2 Change (KQ-Control vs KQ-NTZ): DOWN
  SLC45A2 logFC (KQ-Control vs KQ-NTZ): -0.7358
  SLITRK5 Change (KQ-Control vs KQ-NTZ): DOWN
  SLITRK5 logFC (KQ-Control vs KQ-NTZ): -0.708
  SVEP1 Change (KQ-Control vs KQ-NTZ): DOWN
  SVEP1 logFC (KQ-Control vs KQ-NTZ): -1.4829
  TCN1 Change (KQ-Control vs KQ-NTZ): DOWN
  TCN1 logFC (KQ-Control vs KQ-NTZ): -0.7528
  TENM4 Change (KQ-Control vs KQ-NTZ): DOWN
  TENM4 logFC (KQ-Control vs KQ-NTZ): -0.7441
  TIMM8A Change (KQ-Control vs KQ-NTZ): DOWN
  TNF Change (KQ-Control vs KQ-NTZ): DOWN
  TNF logFC (KQ-Control vs KQ-NTZ): -0.6786
  TNFRSF6B Change (KQ-Control vs KQ-NTZ): DOWN
  TNFRSF6B logFC (KQ-Control vs KQ-NTZ): -0.5861
  TNFRSF11B Change (KQ-Control vs KQ-NTZ): DOWN
  TNFRSF11B logFC (KQ-Control vs KQ-NTZ): -2.1243
  TSPAN18 Change (KQ-Control vs KQ-NTZ): DOWN
  TSPAN18 logFC (KQ-Control vs KQ-NTZ): -0.7268
  TTC30A Change (KQ-Control vs KQ-NTZ): DOWN
  TTC30A logFC (KQ-Control vs KQ-NTZ): -0.7519
  TTC30B Change (KQ-Control vs KQ-NTZ): DOWN
  TTC30B logFC (KQ-Control vs KQ-NTZ): -0.6538
  XKRX Change (KQ-Control vs KQ-NTZ): DOWN
  XKRX logFC (KQ-Control vs KQ-NTZ): -0.6274
  ZFPM2 Change (KQ-Control vs KQ-NTZ): DOWN
  ZFPM2 logFC (KQ-Control vs KQ-NTZ): -1.4661
  ZNF28 Change (KQ-Control vs KQ-NTZ): DOWN
  ZNF28 logFC (KQ-Control vs KQ-NTZ): -0.6433
  ZNF302 Change (KQ-Control vs KQ-NTZ): DOWN
  ZNF302 logFC (KQ-Control vs KQ-NTZ): -1.2333
RNA-Seq, PC-3-KQ cells, KQ-Control vs KQ-NTZ, gene ABCB11
  logFC, gene ABCB11: -0.7396
RNA-Seq, PC-3-KQ cells, KQ-Control vs KQ-NTZ, gene C5orf63
  logFC, gene C5orf63: -1.615
RNA-Seq, PC-3-KQ cells, KQ-Control vs KQ-NTZ, gene C11orf65
  logFC, gene C11orf65: -0.9307
RNA-Seq, PC-3-KQ cells, KQ-Control vs KQ-NTZ, gene CELF3
  logFC, gene CELF3: -0.8233
RNA-Seq, PC-3-KQ cells, KQ-Control vs KQ-NTZ, gene LOC107985532
  logFC, gene LOC107985532: -0.9452
RNA-Seq, PC-3-KQ cells, KQ-Control vs KQ-NTZ, gene MROH8
  logFC, gene MROH8: -0.9801
RNA-Seq, PC-3-KQ cells, KQ-Control vs KQ-NTZ, gene RLN1
  logFC, gene RLN1: -1.0231
RNA-Seq, PC-3-KQ cells, KQ-Control vs KQ-NTZ, gene RP1L1
  logFC, gene RP1L1: -0.9422
RNA-Seq, PC-3-KQ cells, KQ-Control vs KQ-NTZ, gene SAXO2
  logFC, gene SAXO2: -0.8856
RNA-Seq, PC-3-KQ cells, KQ-Control vs KQ-NTZ, gene TNFAIP8L2-SCNM1
  logFC, gene TNFAIP8L2-SCNM1: -0.9389
RNA-Seq, PC-3-KQ cells, KQ-Control vs KQ-NTZ, gene ZNF154
  logFC, gene ZNF154: -0.8416
RNA-Seq, PC-3-KQ cells, KQ-Control vs KQ-NTZ, gene ZNF596
  logFC, gene ZNF596: -0.9026
RNA-Seq, PC-3-KQ cells, gene ABCB11
  Change (KQ-Control vs KQ-NTZ), gene ABCB11: DOWN
RNA-Seq, PC-3-KQ cells, gene C5orf63
  Change (KQ-Control vs KQ-NTZ), gene C5orf63: DOWN
RNA-Seq, PC-3-KQ cells, gene C11orf65
  Change (KQ-Control vs KQ-NTZ), gene C11orf65: DOWN
RNA-Seq, PC-3-KQ cells, gene CELF3
  Change (KQ-Control vs KQ-NTZ), gene CELF3: DOWN
RNA-Seq, PC-3-KQ cells, gene LOC107985532
  Change (KQ-Control vs KQ-NTZ), gene LOC107985532: DOWN
RNA-Seq, PC-3-KQ cells, gene MROH8
  Change (KQ-Control vs KQ-NTZ), gene MROH8: DOWN
RNA-Seq, PC-3-KQ cells, gene RLN1
  Change (KQ-Control vs KQ-NTZ), gene RLN1: DOWN
RNA-Seq, PC-3-KQ cells, gene RP1L1
  Change (KQ-Control vs KQ-NTZ), gene RP1L1: DOWN
RNA-Seq, PC-3-KQ cells, gene SAXO2
  Change (KQ-Control vs KQ-NTZ), gene SAXO2: DOWN
RNA-Seq, PC-3-KQ cells, gene TNFAIP8L2-SCNM1
  Change (KQ-Control vs KQ-NTZ), gene TNFAIP8L2-SCNM1: DOWN
RNA-Seq, PC-3-KQ cells, gene ZNF154
  Change (KQ-Control vs KQ-NTZ), gene ZNF154: DOWN
RNA-Seq, PC-3-KQ cells, gene ZNF596
  Change (KQ-Control vs KQ-NTZ), gene ZNF596: DOWN
Gene AADACL3
  change of NTZ treatment: down
Gene ABAT
  change of NTZ treatment: up
Gene ADIRF
  change of NTZ treatment: up
Gene ADIRF, KQ-Control vs KQ-NTZ
  logFC: 0.6207
Gene AKR1B1, KQ-Control vs KQ-NTZ
  logFC: 1.237
Gene AKR1C1
  change of NTZ treatment: up
Gene AKR1C1, KQ-Control vs KQ-NTZ
  logFC: 1.37
Gene AKR1C3
  change of NTZ treatment: up
Gene ANG
  change of NTZ treatment: up
Gene ANG, KQ-Control vs KQ-NTZ
  logFC: 1.354
